From US7041698B2, “Hepatitis C virus inhibitors” (Bristol-Myers Squibb Company, priority 2002, dated 2006)

Columns and labels:
[1] = molecular target: T1, HCV NS3/4A protease complex (UniProt P27958, C1454S/C1711G, species not given); test: Recombinant HCV NS3/4A protease complex FRET peptide assay (strain not stated); assay type: biochemical; conditions: HCV NS3/4A protease enzyme assay, read-out: IC50 range
T1 construct: fused on or other part: Three-lysine solubilising tail at the C-terminus of NS4A
Excerpt: Recombinant HCV NS3/4A Protease Complex FRET Peptide Assay
The purpose of this in vitro assay was to measure the inhibition of HCV NS3 protease complexes, derived from the BMS, H77C or J416S strains, as described below, by compounds of the present invention. This assay provides an indication of how effective compounds of the present invention would be in inhibiting HCV proteolytic activity.
Serum from an HCV-infected patient was obtained from Dr. T. Wright, San Francisco Hospital. An engineered full-length cDNA (compliment deoxyribonucleic acid) template of the HCV genome (BMS strain) was constructed from DNA fragments obtained by reverse transcription-PCR (RT-PCR) of serum RNA (ribonucleic acid) and using primers selected on the basis of homology between other genotype 1a strains. From the determination of the entire genome sequence, a genotype 1a was assigned to the HCV isolate according to the classification of Simmonds et al. (See P Simmonds, K A Rose, S Graham, S W Chan, F McOmish, B C Dow, E A Follett, P L Yap and H Marsden, J. Clin. Microbiol., 31(6), 1493–1503 (1993)). […] The infectious clones, H77C (1a genotype) and J4L6S (1b genotype) were obtained from R. Purcell (NIH) and the sequences are published in Genbank (AAB67036, see Yanagi, M., Purcell, R. H., Emerson, S. U. and Bukh, J. Proc. Natl. Acad. Sci. U.S.A. 94(16),8738–8743 (1997); AF054247, see Yanagi, M., St Claire, M., Shapiro, M., Emerson, S. U., Purcell, R. H. and Bukh, J, Virology 244 (1), 161–172. (1998)).
The BMS, H77C and J4L6S strains were used for production of recombinant NS3/4A protease complexes. DNA encoding the recombinant HCV NS3/4A protease complex (amino acids 1027 to 1711) for these strains were manipulated as described by P. Gallinari et al. (see Gallinari P, Paolini C, Brennan D, Nardi C, Steinkuhler C, De Francesco R. Biochemistry. 38(17):5620–32, (1999)). Briefly, a three-lysine solubilizing tail was added at the 3′-end of the NS4A coding region. The cysteine in the P1 position of the NS4A-NS4B cleavage site (amino acid 1711) was changed to a glycine to avoid the proteolytic cleavage of the lysine tag. Furthermore, a cysteine to serine mutation was introduced by PCR at amino acid position 1454 to prevent the autolytic cleavage in the NS3 helicase domain. The variant DNA fragment was cloned in the pET21b bacterial expression vector (Novagen) and the NS3/4A complex was expressed in Escherichia. coli strain BL21 (DE3) (Invitrogen) following the protocol described by P. Gallinari et al. (see Gallinari P, Brennan D, Nardi C, Brunetti M, Tomei L, Steinkuhler C, De Francesco R., J. Virol. 72(8):6758–69 (1998)) with modifications. Briefly, NS3/4A expression was induced with 0.5 mM Isopropyl β-D-1-thiogalactopyranoside (IPTG) for 22 hr at 20° C. A typical fermentation (10L) yielded approximately 80 g of wet cell paste. The cells were resuspended in lysis buffer (10 mL/g) consisting of 25 mM N-(2-Hydroxyethyl)Piperazine-N′-(2-Ethane Sulfonic acid) (HEPES), pH7.5, 20% glycerol, 500 mM Sodium Chloride (NaCl), 0.5% Triton-X100, 1 ug/ml lysozyme, 5 mM Magnesium Chloride (MgCl2), lug/ml Dnasel, 5 mM β-Mercaptoethanol (βME), Protease inhibitor—Ethylenediamine Tetraacetic acid (EDTA) free (Roche), homogenized and incubated for 20 mins at 4° C. The homogenate was sonicated and clarified by ultra-centrifugation at 235000 g for 1 hr at 4° C. Imidazole was added to the supernatant to a final concentration of 15 mM and the pH adjusted to 8.0. The crude protein extract was loaded on a Nickel-Nitrilotriacetic acid (Ni-NTA) column pre-equilibrated with buffer B (25 mM HEPES, pH 8.0, 20% glycerol, 500 mM NaCl, 0.5% Triton-X100, 15 mM imidazole, 5 mM βME). The sample was loaded at a flow rate of 1 mL/min. The column was washed with 15 column volumes of buffer C (same as buffer B except with 0.2% Triton-X100). The protein was eluted with 5 column volumes of buffer D (same as buffer C except with 200 mM Imidazole). […]

[2] = system: HCV replicon in Huh7 cells; test: HCV replicon cell-based assay; design: species or system HCV strain 1B; conditions: Hepatitis C virus, Huh-7, 96 h, HCV replicon, 4 days, read-out: EC50 range
Excerpt: HCV Replicon Cell-based Assay
An HCV replicon whole cell system was established as described by Lohmann V, Komer F, Koch J, Herian U, Theilmann L, Bartenschlager R., Science 285(5424):110–3 (1999). This system enabled us to evaluate the effects of our HCV Protease compounds on HCV RNA replication. Briefly, using the HCV strain 1B sequence described in the Lohmann paper (Assession number:AJ238799), an HCV cDNA was generated encoding the 5′ internal ribosome entry site (IRES), the neomycin resistance gene, the EMCV (encephalomyocarditis viurs)-IRES and the HCV nonstructural proteins, NS3-NS5B, and 3′ non-translated region (NTR). In vitro transcripts of the cDNA were transfected into the human hepatoma cell line, Huh7. […] Resulting cell lines were characterized for positive and negative strand RNA production and protein production over time.
Huh7 cells, constitutively expressing the HCV replicon, were grown in Dulbecco's Modified Eagle Media (DMEM) containing 10% Fetal calf serum (FCS) and 1 mg/ml G418 (Gibco-BRL). Cells were seeded the night before (1.5×10^4 cells/well) in 96-well tissue-culture sterile plates. Compound and no compound controls were prepared in DMEM containing 4% FCS, 1:100 Penicillin/Streptomysin, 1:100 L-glutamine and 5% DMSO in the dilution plate (0.5% DMSO final concentration in the assay). Compound/DMSO mixes were added to the cells and incubated for 4 days at 37° C. After 4 days, plates were rinsed thoroughly with Phosphate-Buffered Saline (PBS) (3 times 150 μl). The cells were lysed with 25 μl of a lysis assay reagent containing the FRET peptide (RET S1, as described for the in vitro enzyme assay). The lysis assay reagent was made from 5× cell Luciferase cell culture lysis reagent (Promega #E153A) diluted to 1× with distilled water, NaCl added to 150 mM final, the FRET peptide diluted to 10 μM final from a 2 mM stock in 100% DMSO. The plate was then placed into the Cytofluor 4000 instrument which had been set to 340 nm excitation/490 emission, automatic mode for 21 cycles and the plate read in a kinetic mode. EC50 determinations were carried out as described for the IC50 determinations.
As a secondary assay, EC50 determinations from the replicon FRET assay were confirmed in a quantitative RNA assay. Cells were lyzed using the Rneasy kit (Qiagen). Purified total RNA was normalized using RiboGreen (Jones L J, Yue S T, Cheung C Y, Singer V L, Anal. Chem., 265(2):368–74 (1998)) and relative quantitation of HCV RNA expression assessed using the Taqman procedure (Kolykhalov A A, Mihalik K, Feinstone S M, Rice C M, Journal of Virology 74, 2046–2051 (2000)) and the Platinum Quantitative RT-PCR Thermoscript One-Step kit (Invitrogen cat # 11731-015). Briefly, RNA made to a volume of 5 μl (<1 ng) was added to a 20 μl Ready-Mix containing the following: 1.25× Thermoscript reaction mix (containing Magnesium Sulfate and 2-deoxynucleoside 5′-triphosphates (dNTPs)), 3 mM dNTPs, 200 nM forward primer (sequence: 5′-[…]-3′), 600 nM reverse primer (5′-[…]-3′), 100 nM probe (5′-6-FAM-[…]-BHQ-1-3′)(FAM: Fluorescein-aminohexyl amidite; BHQ: Black Hole Quencher), 1 μM Rbx reference dye (Invitrogen cat # 12223-012) and Thermoscript Plus Platinum Taq polymerase mixture. All primers were designed with ABI Prism 7700 software and obtained from Biosearch Technologies, Novato, Calif. Samples containing known concentrations of HCV RNA transcript were run as standards. Using the following cycling protocol (50° C., 30 min; 95° C., 5 min; 40 cycles of 95° C., 15 sec, 60° C., 1 min), HCV RNA expression was quantitated as described in the Perkin Elmer manual using the ABI Prism 7700 Sequence Detector.
The luciferase reporter assay was also used to confirm compound potency in the replicon. Utilization of a replicon luciferase reporter assay was first described by Krieger et al (Krieger N, Lohmann V, and Bartenschlager R, J. Virol. 75(10):4614–4624 (2001)). […]

| SMILES | IC50 [1] | EC50 [2] |
| --- | --- | --- |
| C=CC1C[C@]1(NC(=O)[C@@H]1C[C@@H](OC(=O)NCc2ccc(OC)cc2)CN1C(=O)[C@@H](NC(=O)OC(C)(C)C)C(C)(C)C)C(=O)NS(=O)(=O)C1CC1 (stereo partly drawn) [Compound 11, BocNH-P3(t-BuGly)-P2(Hyp(O—CO(NH—(4-methoxy-benzyl))))-P1(1R,2S VinylAcca)—CONHSO2Cyclopropane] | 100 to 1000 nM | 1000 to 10000 nM |
| C=CC1C[C@]1(NC(=O)[C@@H]1C[C@@H](OC(=O)N[C@H](C(=O)OC)[C@@H](C)CC)CN1C(=O)[C@@H](NC(=O)OC(C)(C)C)C(C)(C)C)C(=O)NS(=O)(=O)C1CC1 (stereo partly drawn) [Compound 12, BocNH-P3(t-BuGly)-P2(Hyp(O—CO(NH-2-[(2S,3S)-3-methylvaleric acid methyl ester])))-P1(1R,2S VinylAcca)—CONHSO2Cyclopropane] | 1000 to 10000 nM | > 10000 nM |
| C=CC1C[C@]1(NC(=O)[C@@H]1C[C@@H](OC(=O)N2CCCC2)CN1C(=O)[C@@H](NC(=O)OC(C)(C)C)C(C)(C)C)C(=O)NS(=O)(=O)C1CC1 (stereo partly drawn) [Compound 13, BocNH-P3(t-BuGly)-P2(Hyp(O—CO(N,N-(pyrrolidino))))-P1(1R,2S VinylAcca)—CONHSO2Cyclopropane] | 100 to 1000 nM | > 10000 nM |
| C=CC1C[C@]1(NC(=O)[C@@H]1C[C@@H](OC(=O)N2CCCCC2)CN1C(=O)[C@@H](NC(=O)OC(C)(C)C)C(C)(C)C)C(=O)NS(=O)(=O)C1CC1 (stereo partly drawn) [Compound 14, BocNH-P3(t-BuGly)-P2(Hyp(O—CO(N,N-(piperdino))))-P1(1R,2S VinylAcca)—CONHSO2Cyclopropane] | 100 to 1000 nM | 1000 to 10000 nM |
| C=CC1C[C@]1(NC(=O)[C@@H]1C[C@@H](OC(=O)Nc2cc([N+](=O)[O-])ccc2C)CN1C(=O)[C@@H](NC(=O)OC(C)(C)C)C(C)(C)C)C(=O)NS(=O)(=O)C1CC1 (stereo partly drawn) [Compound 15, BocNH-P3(t-BuGly)-P2(Hyp(O—CO(NH—(2-methyl-5-nitro-phenyl))))-P1(1R,2S VinylAcca)—CONHSO2Cyclopropane] | < 100 nM | 1000 to 10000 nM |
| C=CC1C[C@]1(NC(=O)[C@@H]1C[C@@H](OC(=O)Nc2ccc(F)c(F)c2F)CN1C(=O)[C@@H](NC(=O)OC(C)(C)C)C(C)(C)C)C(=O)NS(=O)(=O)C1CC1 (stereo partly drawn) [Compound 16, BocNH-P3(t-BuGly)-P2(Hyp(O—CO(NH—(2,3,4-trifluoro-phenyl))))-P1(1R,2S VinylAcca)—CONHSO2Cyclopropane] | 100 to 1000 nM | 1000 to 10000 nM |
| C=CC1C[C@]1(NC(=O)[C@@H]1C[C@@H](OC(=O)Nc2ccccc2C(C)(C)C)CN1C(=O)[C@@H](NC(=O)OC(C)(C)C)C(C)(C)C)C(=O)NS(=O)(=O)C1CC1 (stereo partly drawn) [Compound 17, BocNH-P3(t-BuGly)-P2(Hyp(O—CO(NH—(2-tert-butyl-phenyl))))-P1(1R,2S VinylAcca)—CONHSO2Cyclopropane] | 100 to 1000 nM | 1000 to 10000 nM |
| C=CC1C[C@]1(NC(=O)[C@@H]1C[C@@H](OC(=O)Nc2cc(Cl)nc(Cl)c2)CN1C(=O)[C@@H](NC(=O)OC(C)(C)C)C(C)(C)C)C(=O)NS(=O)(=O)C1CC1 (stereo partly drawn) [Compound 18, BocNH-P3(t-BuGly)-P2(Hyp(O—CO(NH—(2,6-Dichloro-pyridin-4-yl))))-P1(1R,2S VinylAcca)—CONHSO2Cyclopropane] | 100 to 1000 nM | > 10000 nM |
| C=CC1C[C@]1(NC(=O)[C@@H]1C[C@@H](OC(=O)Nc2ccccc2C(=O)OCC)CN1C(=O)[C@@H](NC(=O)OC(C)(C)C)C(C)(C)C)C(=O)NS(=O)(=O)C1CC1 (stereo partly drawn) [Compound 19, BocNH-P3(t-BuGly)-P2(Hyp(O—CO(NH—(2-benzoic acid ethyl ester))))-P1(1R,2S VinylAcca)—CONHSO2Cyclopropane] | < 100 nM | < 100 nM |
| C=CC1C[C@]1(NC(=O)[C@@H]1C[C@@H](OC(=O)Nc2cc(Cl)ccc2C)CN1C(=O)[C@@H](NC(=O)OC(C)(C)C)C(C)(C)C)C(=O)NS(=O)(=O)C1CC1 (stereo partly drawn) [Compound 20, BocNH-P3(t-BuGly)-P(Hyp(O—CO(NH—(5-chloro-2-methyl-phenyl))))-P1(1R,2S VinylAcca)—CONHSO2Cyclopropane] | < 100 nM | 1000 to 10000 nM |
